We go through 73 sequences from the supplement of paper PMC11208160.

The nature of this series: recombinant barcode read abundance after kanamycin selection (control-corrected) (log10(CPM+1)); higher = more efficient recombination; sequences stand for … in AGTGCAGAGAAAATCGGCCAGTTTTCTCTGCCTGCAGTCCGCATGCCGT…AGATTTATGCAGCGGACTGCCTTTCTCCCAAAGTGATAAACCGGACAGTATCATGGACCGGTTTTCCCGGTAATCCGTATTTGCAAGGTTGGTTTCACT; site = the 11-nt target. The procedure: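 Pooled E. coli target-specificity screen for the IS621 bridge recombinase. Each library plasmid pairs an 11-nt target (CT core) with a bridge RNA whose target-binding loop (9-nt LTG + 4-nt RTG) is reprogrammed; the rest of the 177-nt WT IS621 bridge RNA scaffold is fixed. The plasmid is co-electroporated with a WT donor plasmid; recombinase is induced with 0.1 mM IPTG and recombinants are selected on kanamycin. Recombinant barcodes are sequenced, converted to CPM, averaged over two biological replicates and corrected by the unselected control CPM. Molecule = full bridge RNA written as DNA: LTG = specificity nt 1-9, RTG = reverse complement of specificity nt 8-11, in the WT scaffold.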
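Further: IS621 recombinase and bridge RNA in Escherichia coli cells.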

On to “ACCACGCCTTGGGTTCTAACCTGTTGCCT (site ACCACGCCTAG)”, for which the “recombinant barcode read abundance (log10)” value was 0.342.
As for “ACCACGCCTTGGGTTCTAACCTGTTGCCT (site ATCACGCCTAG)”, the “recombinant barcode read abundance (log10)” value amounted to 0.0537.
The value for “ACCAGCCCTTGGGTTCTAACCTGTTGCTG (site ACCAGCCCTCA)” was 1.38; that for “ACCAGCCCTTGGGTTCTAACCTGTTGCTG (site TGATATTCTAG)” was 0.0743.
The value for “ACCAGTCCTTGGGTTCTAACCTGTTGCTA (site ACCAGTCCTCA)” was 0.065; that for “ACCAGTCCTTGGGTTCTAACCTGTTGCTA (site ACCAGTCCTTA)” was 0.934; that for “ACCATACCTTGGGTTCTAACCTGTTGCAT (site ACCATACCTAT)” was 0.385.
The figure for “ACCATACCTTGGGTTCTAACCTGTTGCAT (site TAGGATTCTGC)” is 0.124.
Turning to “ACCCAATCTTGGGTTCTAACCTGTTGCAC (site ACCCAATCTGT)”, the “recombinant barcode read abundance (log10)” value was determined as 1.94.
With “ACCCAATCTTGGGTTCTAACCTGTTGCAC (site TAGGCTACTTG)”, the “recombinant barcode read abundance (log10)” value stood at 0.0478.
On to “ACCCAGCCTTGGGTTCTAACCTGTTGCCT (site ACCCAGCCTAA)”, for which the “recombinant barcode read abundance (log10)” value worked out at 0.146.
With “ACCCAGCCTTGGGTTCTAACCTGTTGCCT (site ACCCAGCCTAC)”, the “recombinant barcode read abundance (log10)” value worked out at 1.27.
“ACCCAGCCTTGGGTTCTAACCTGTTGCCT (site ACCCAGCCTAG)”: the “recombinant barcode read abundance (log10)” value was found to be 1.44.
Consider “ACCCAGCCTTGGGTTCTAACCTGTTGCCT (site ACCCAGCCTAT)”, for which the “recombinant barcode read abundance (log10)” value was 0.522.
The value for “ACCCAGTCTTGGGTTCTAACCTGTTGCGG (site ACCCAGTCTCC)” was 2.08.
On to “ACCCAGTCTTGGGTTCTAACCTGTTGCGG (site GTAAGTGCTAT)”, for which the “recombinant barcode read abundance (log10)” value amounted to 0.151.
“ACCCCGTCTTGGGTTCTAACCTGTTGCCT (site ACCCCGTCTAG)”: the “recombinant barcode read abundance (log10)” value was 1.65.
The value for “ACCCCGTCTTGGGTTCTAACCTGTTGCCT (site ACCCTGTCTCG)” was 0.0376; that for “ACCCTGTCTTGGGTTCTAACCTGTTGCCG (site ACCCCGTCTAG)” was 0.0728; that for “ACCCTGTCTTGGGTTCTAACCTGTTGCCG (site ACCCTGTCTCG)” was 2.44.
The figure for “ACCCTTACTTGGGTTCTAACCTGTTGCCT (site AACCTTACTAG)” is 0.0611.
The value for “ACCCTTACTTGGGTTCTAACCTGTTGCCT (site ACCCTTACTAG)” was 1.07; that for “ACCCTTACTTGGGTTCTAACCTGTTGCCT (site AGCCTTACTAG)” was 0.00699; that for “ACCCTTACTTGGGTTCTAACCTGTTGCCT (site ATCCTTACTAG)” was 0.142.
For “ACCGAGACTTGGGTTCTAACCTGTTGCCT (site ACCGAGACTAG)”, the “recombinant barcode read abundance (log10)” value was determined as 0.224.
The figure for “ACCGAGACTTGGGTTCTAACCTGTTGCCT (site ACCGCGACTAG)” is 0.113; for “ACCGAGACTTGGGTTCTAACCTGTTGCCT (site ACCGGGACTAG)” it is 0.0279; for “ACCGAGACTTGGGTTCTAACCTGTTGCCT (site ACCGTGACTAG)” it is 0.0449.
The value for “ACCGAGGCTTGGGTTCTAACCTGTTGCCT (site AACGACGCTAG)” was 0.193; that for “ACCGAGGCTTGGGTTCTAACCTGTTGCCT (site ACCGAGGCTAG)” was 0.824.
The figure for “ACCGCGACTTGGGTTCTAACCTGTTGCCT (site ACCGAGACTAG)” is 0.0792; for “ACCGCGACTTGGGTTCTAACCTGTTGCCT (site ACCGCGACTAG)” it is 0.0908; for “ACCGCGACTTGGGTTCTAACCTGTTGCCT (site ACCGGGACTAG)” it is 0.218.
Consider “ACCGCGACTTGGGTTCTAACCTGTTGCCT (site ACCGTGACTAG)”, for which the “recombinant barcode read abundance (log10)” value is 0.121.
In the case of “ACCGCTTCTTGGGTTCTAACCTGTTGCCT (site AACGCTTCTAG)”, the “recombinant barcode read abundance (log10)” value was 0.096.
As for “ACCGCTTCTTGGGTTCTAACCTGTTGCCT (site ACCGCTTCTAG)”, the “recombinant barcode read abundance (log10)” value is 0.494.
The figure for “ACCGCTTCTTGGGTTCTAACCTGTTGCCT (site AGCGCTTCTAG)” is 0.0685.
The figure for “ACCGCTTCTTGGGTTCTAACCTGTTGCCT (site ATCGCTTCTAG)” is 0.329.
The value for “ACCGTAGCTTGGGTTCTAACCTGTTGCCT (site ACCGTACCTAG)” was 0.33.
With “ACCGTAGCTTGGGTTCTAACCTGTTGCCT (site ACCGTAGCTAG)”, the “recombinant barcode read abundance (log10)” value turned out to be 1.07.
The figure for “ACCGTGACTTGGGTTCTAACCTGTTGCCT (site ACCGAGACTAG)” is 0.0423.
The value for “ACCGTGACTTGGGTTCTAACCTGTTGCCT (site ACCGCGACTAG)” was 0.272.
The figure for “ACCGTGACTTGGGTTCTAACCTGTTGCCT (site ACCGGGACTAG)” is 0.0292.
Consider “ACCGTGACTTGGGTTCTAACCTGTTGCCT (site ACCGTGACTAG)”, for which the “recombinant barcode read abundance (log10)” value came out at 1.96.
The value for “ACCTGACCTTGGGTTCTAACCTGTTGCGG (site ACCTGACCTCC)” was 1.6; that for “ACCTGACCTTGGGTTCTAACCTGTTGCGG (site CGGACTGCTAG)” was 0.12; that for “ACCTGCCCTTGGGTTCTAACCTGTTGCCT (site ACCTGACCTAG)” was 0.154.
The value for “ACCTGCCCTTGGGTTCTAACCTGTTGCCT (site ACCTGCCCTAG)” was 1.38; that for “ACCTGCCCTTGGGTTCTAACCTGTTGCCT (site ACCTGGCCTAG)” was 0.0614.
The figure for “ACCTGCCCTTGGGTTCTAACCTGTTGCCT (site ACCTGTCCTAG)” is 0.232; for “ACCTGTACTTGGGTTCTAACCTGTTGCCT (site ACCAGTACTAG)” it is 0.0531; for “ACCTGTACTTGGGTTCTAACCTGTTGCCT (site ACCCGTACTAG)” it is 0.147.
With “ACCTGTACTTGGGTTCTAACCTGTTGCCT (site ACCGGTACTAG)”, the “recombinant barcode read abundance (log10)” value is 0.0956.
As to “ACCTGTACTTGGGTTCTAACCTGTTGCCT (site ACCTGTACTAG)”, the “recombinant barcode read abundance (log10)” value is 0.183.
The figure for “ACCTTAGCTTGGGTTCTAACCTGTTGCGG (site ACCCTAACTCC)” is 0.263.
The figure for “ACCTTAGCTTGGGTTCTAACCTGTTGCGG (site ACCTTAGCTCC)” is 1.79.
The figure for “ACCTTGCCTTGGGTTCTAACCTGTTGCCT (site ACATTGCCTAG)” is 0.178; for “ACCTTGCCTTGGGTTCTAACCTGTTGCCT (site ACCTTGCCTAG)” it is 0.012.
As for “ACCTTGCCTTGGGTTCTAACCTGTTGCCT (site ACGTTGCCTAG)”, the “recombinant barcode read abundance (log10)” value came out at 0.875.
The value for “ACCTTGCCTTGGGTTCTAACCTGTTGCCT (site ACTTTGCCTAG)” was 0.0414; that for “ACGAATCCTTGGGTTCTAACCTGTTGCTT (site ACGAATCCTAA)” was 0.423.
The value for “ACGAATCCTTGGGTTCTAACCTGTTGCTT (site ACGACTCCTAA)” was 0.0122; that for “ACGAATCCTTGGGTTCTAACCTGTTGCTT (site ACGAGTCCTAA)” was 0.461; that for “ACGAATCCTTGGGTTCTAACCTGTTGCTT (site ACGATTCCTAA)” was 0.0624.
The figure for “ACGACTCCTTGGGTTCTAACCTGTTGCTG (site ACGACTCCTCA)” is 0.485; for “ACGACTCCTTGGGTTCTAACCTGTTGCTG (site ACGCCTCCTCA)” it is 0.0825.
As to “ACGACTCCTTGGGTTCTAACCTGTTGCTG (site ACGGCTCCTCA)”, the “recombinant barcode read abundance (log10)” value stood at 0.0665.
“ACGACTCCTTGGGTTCTAACCTGTTGCTG (site ACGTCTCCTCA)”: the “recombinant barcode read abundance (log10)” value is 0.0836.
The figure for “ACGACTCCTTGGGTTCTAACCTGTTGCTT (site ACGAATCCTAA)” is 0.224; for “ACGACTCCTTGGGTTCTAACCTGTTGCTT (site ACGACTCCTAA)” it is 0.0167.
The figure for “ACGACTCCTTGGGTTCTAACCTGTTGCTT (site ACGAGTCCTAA)” is 0.0152; for “ACGACTCCTTGGGTTCTAACCTGTTGCTT (site ACGATTCCTAA)” it is 0.0399; for “ACGACTTCTTGGGTTCTAACCTGTTGCCT (site ACGACTACTAG)” it is 0.0265.
